In brackets after ≈: the same amount, converted by molar mass.
These molecules were tested on Botrytis cinerea (assay: Antifungal actiivty against Botryotinia fuckeliana ACCC 30387 assessed as inhibition of radial growth after 3 days). Details: ACCC 30387, 72 h.
Format: functional

SMILES	MIC [µg/mL]
CC1=C(C)C(=O)N(Cc2ccccc2)C1=O	5 (≈ 23.2 µM)
CC1=C(C)C(=O)N(CCCc2ccccc2)C1=O	10 (≈ 41.1 µM)
Cc1ccc2c(c1)C(=O)OC2=O	> 1000
O=C(O)c1ccc2c(c1)C(=O)OC2=O	> 1000
O=C1OC(=O)c2c(F)ccc(F)c21	150 (≈ 815 µM)
O=C1OC(=O)c2c(F)c(F)c(F)c(F)c21	500 (≈ 2270 µM)
O=C1OC(=O)c2cc(Cl)c(Cl)cc21	500 (≈ 2300 µM)
O=C1OC(=O)c2c1ccc(Cl)c2Cl	> 1000
O=C1OC(=O)c2c(Cl)ccc(Cl)c21	> 1000
O=C1OC(=O)C(c2ccccc2)=C1c1ccccc1	20 (≈ 79.9 µM)
O=C1OC(=O)C(Cl)=C1Cl	100 (≈ 599 µM)
CC1=C(CCC(=O)O)C(=O)OC1=O	80 (≈ 434 µM)
CCCCCCC1=C(C)C(=O)OC1=O	4 (≈ 20.4 µM)
CCCCCCCCCCC1=C(C)C(=O)OC1=O	3 (≈ 11.9 µM)
CC(=O)OCC1=C(C)C(=O)OC1=O	20 (≈ 109 µM)
CC1=C(CNc2cc(Cl)cc(Cl)c2)C(=O)OC1=O	50 (≈ 175 µM)
CC1=C(C)C(=O)N(CC(C)C)C1=O	50 (≈ 276 µM)
CCCCCN1C(=O)C(C)=C(C)C1=O	5 (≈ 25.6 µM)
CCCCCCCCN1C(=O)C(C)=C(C)C1=O	50 (≈ 211 µM)
CCCCCCCCCCCCN1C(=O)C(C)=C(C)C1=O	50 (≈ 170 µM)
CC1=C(C)C(=O)N(c2ccc(C)cc2)C1=O	5 (≈ 23.2 µM)
CC1=C(C)C(=O)N(c2cc(Cl)cc(Cl)c2)C1=O	0.1 (≈ 0.37 µM)
CC1=C(C)C(=O)N(c2nc3ccccc3[nH]2)C1=O	10 (≈ 41.5 µM)
CC1=C(C)C(=O)N(c2ccccc2)C1=O	1 (≈ 4.97 µM)
Nc1c(Cl)cc([N+](=O)[O-])cc1Cl [ALLISAN]	0.1 (≈ 0.483 µM)
O=C1C=CC(=O)O1 [MALEIC ANHYDRIDE]	250 (≈ 2550 µM)
O=C1OC(=O)c2ccccc21 [PHTHALIC ANHYDRIDE]	> 1000

Further lines, results first:

MIC [µg/mL]	SMILES
75 (≈ 327 µM)	CC1=C(C)C(=O)N(CCc2ccccc2)C1=O
500 (≈ 3010 µM)	O=C1OC(=O)c2c(F)cccc21
1000 (≈ 5650 µM)	O=C1C=C(Br)C(=O)O1
150 (≈ 861 µM)	O=C1C=C(c2ccccc2)C(=O)O1
3 (≈ 23.8 µM)	CC1=C(C)C(=O)OC1=O
10 (≈ 48.8 µM)	CC1=C(CBr)C(=O)OC1=O
> 1000	CC1=C(CO)C(=O)OC1=O
8 (≈ 28.1 µM)	CCOC(=O)C(CC1=C(C)C(=O)OC1=O)C(=O)OCC
125 (≈ 440 µM)	O=C1OC(=O)C(CBr)=C1CBr
25 (≈ 162 µM)	CCCC1=C(C)C(=O)OC1=O
5 (≈ 27.4 µM)	CCCCCC1=C(C)C(=O)OC1=O
15 (≈ 60.9 µM)	CC1=C(COC(=O)c2ccccc2)C(=O)OC1=O
5 (≈ 27.6 µM)	CCCCN1C(=O)C(C)=C(C)C1=O
5 (≈ 23.9 µM)	CCCCCCN1C(=O)C(C)=C(C)C1=O
10 (≈ 48.2 µM)	CC1=C(C)C(=O)N(C2CCCCC2)C1=O
10 (≈ 42.4 µM)	CC1=C(C)C(=O)N(c2ccc(Cl)cc2)C1=O
10 (≈ 38.4 µM)	CC1=C(C)C(=O)N(c2cccc([N+](=O)[O-])c2C)C1=O
1 (≈ 3.92 µM)	CC1=C(C)C(=O)N(c2ccc(F)c(F)c2F)C1=O

The molecules below were run on Botrytis cinerea (assay: Antifungal actiivty against Botryotinia fuckeliana). Details: not given.
Format: functional

MIC [µg/mL]	SMILES
0.78 (≈ 2 µM)	CCCCC1CC2=C(CC(C(O)CCCC)C3=C1C(=O)OC3=O)C(=O)OC2=O (stereo unspecified)
